Source: US12459922B2 (Gilead Sciences, Inc., priority 2022, dated 2025)

Legend:
[1] = test system: endogenous cellular STAT1 (phosphorylated at Tyr701) in NCI-H1373 cells; experiment: Phospho-STAT1 (Tyr701) LANCE Ultra TR-FRET Detection Assay; format: cell-based; conditions: Homo sapiens, NCI-H1373, 48 h, phospho-STAT1 (Tyr701) induction, read-out: NH1373 pSTAT1 EC50
PARP7 = biological target: T1, PARP7 (Homo sapiens, UniProt Q7Z3E1); experiment: Probe Displacement Assay for PARP7 (MSD electrochemiluminescent, biotinylated probe RBNO11147); conditions: displacement of biotinylated probe RBNO11147 from PARP7 NAD+-binding site; read-out: MSD ProbeDisp PARP7 IC50
T1 sequence (Q7Z3E1 1-657): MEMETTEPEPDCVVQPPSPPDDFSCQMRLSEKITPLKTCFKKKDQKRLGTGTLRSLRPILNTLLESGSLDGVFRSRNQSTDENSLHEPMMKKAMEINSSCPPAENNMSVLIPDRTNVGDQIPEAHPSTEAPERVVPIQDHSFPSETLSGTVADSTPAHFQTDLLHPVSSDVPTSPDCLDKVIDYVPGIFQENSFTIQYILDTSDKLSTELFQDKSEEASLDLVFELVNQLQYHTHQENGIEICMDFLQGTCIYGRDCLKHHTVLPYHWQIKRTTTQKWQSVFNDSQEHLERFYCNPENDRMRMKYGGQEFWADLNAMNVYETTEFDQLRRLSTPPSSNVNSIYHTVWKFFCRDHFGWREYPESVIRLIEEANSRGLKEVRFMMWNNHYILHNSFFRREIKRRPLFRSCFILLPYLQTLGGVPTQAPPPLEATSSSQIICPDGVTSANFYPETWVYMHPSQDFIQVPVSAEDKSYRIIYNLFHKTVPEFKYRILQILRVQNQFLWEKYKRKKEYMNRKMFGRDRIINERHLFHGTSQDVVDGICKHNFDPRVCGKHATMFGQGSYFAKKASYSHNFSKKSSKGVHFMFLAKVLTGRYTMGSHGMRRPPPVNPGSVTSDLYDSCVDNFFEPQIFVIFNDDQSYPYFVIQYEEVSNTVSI
Protocol: Displacement of a biotinylated probe (RBNO11147; Wigle et al., Cell Chemical Biology, 2020, pp. 877-887) from the PARP7 NAD+-binding site was measured in vitro using a Mesoscale Discovery electrochemiluminescent assay. […] Next, 10 ml of 10 nM PARP7 protein incubated for 1 hour at room temperature with a dose response curve of each test compound in a Greiner LDV polypropylene plate (#781201) is added to the MSD plate containing the immobilized probe. The interaction is allowed to reach equilibrium for 1.5 hours, and then 10 ml of SULFO-TAG labeled anti-GST antibody (Cat #R32AA-1) is added to each well and allowed to incubate for an additional 1.5 hours at room temperature. Finally, 10 ml of MSD read buffer T (4×, Cat. #R92C-1) is added to each well using a Bravo liquid handler to prevent air bubbles in the wells, and the plates are subsequently read in an MSD instrument. Light intensity is then measured to quantify the amount of PARP7 bound to the immobilized probe on the plate.

Row | SMILES | EC50 [1] [nM] | IC50 (PARP7) [nM]
1 | C[C@@H](CCCn1ccc2cc(-c3ncc(C(F)(F)F)cn3)cc(F)c2c1=O)Nc1cn[nH]c(=O)c1C(F)(F)F [Example 7, 8-fluoro-2-[(4S)-4-[[6-oxo-5-(trifluoromethyl)-1H-pyridazin-4-yl]amino]pentyl]-6-[5-(trifluoromethyl)pyrimidin-2-yl]isoquinolin-1-one] | 61.3 | 0.3
2 | C[C@@H](CCCn1ccc2cc(-c3ncc(C(F)(F)F)cn3)c(F)cc2c1=O)Nc1cn[nH]c(=O)c1C(F)(F)F [Example 8, 7-fluoro-2-[(4S)-4-[[6-oxo-5-(trifluoromethyl)-1H-pyridazin-4-yl]amino]pentyl]-6-[5-(trifluoromethyl)pyrimidin-2-yl]isoquinolin-1-one] | 19.2 | 0.2
3 | C[C@@H](CCCn1ccc2cc(-c3ccc(C(F)(F)F)cn3)c(F)cc2c1=O)Nc1cn[nH]c(=O)c1C(F)(F)F [Example 9, 7-fluoro-2-[(4S)-4-[[6-oxo-5-(trifluoromethyl)-1H-pyridazin-4-yl]amino]pentyl]-6-[5-(trifluoromethyl)-2-pyridyl]isoquinolin-1-one] | 92.1 | 0.4
4 | C[C@@H](CCCn1ccc2c(F)c(-c3ccc(C(F)(F)F)cn3)ccc2c1=O)Nc1cn[nH]c(=O)c1C(F)(F)F [Example 10, 5-fluoro-2-[(4S)-4-[[6-oxo-5-(trifluoromethyl)-1H-pyridazin-4-yl]amino]pentyl]-6-[5-(trifluoromethyl)-2-pyridyl]isoquinolin-1-one] | 291 | 0.7
5 | C[C@@H](CCCn1ccc2cc(-c3ccc(C(F)(F)F)cn3)cc(F)c2c1=O)Nc1cn[nH]c(=O)c1C(F)(F)F [Example 11, 8-fluoro-2-[(4S)-4-[[6-oxo-5-(trifluoromethyl)-1H-pyridazin-4-yl]amino]pentyl]-6-[5-(trifluoromethyl)-2-pyridyl]isoquinolin-1-one] | 32.4 | 0.2
6 | C[C@@H](CCCn1ccc2cc(-c3ncc(C(F)(F)F)cn3)cnc2c1=O)Nc1cn[nH]c(=O)c1C(F)(F)F [Example 12, 7-[(4S)-4-[[6-oxo-5-(trifluoromethyl)-1H-pyridazin-4-yl]amino]pentyl]-3-[5-(trifluoromethyl)pyrimidin-2-yl]-1,7-naphthyridin-8-one] | 10000 | 23
7 | C[C@@H](CCCn1ccc2cc(-c3ccc(C(F)(F)F)cn3)ncc2c1=O)Nc1cn[nH]c(=O)c1C(F)(F)F [Example 13, 2-[(4S)-4-[[6-oxo-5-(trifluoromethyl)-1H-pyridazin-4-yl]amino]pentyl]-6-[5 (trifluoromethyl)-2-pyridyl]-2,7-naphthyridin-1-one] | 10000 | 3.7
8 | C[C@@H](CCCn1ccc2nc(-c3ccc(C(F)(F)F)cn3)ccc2c1=O)Nc1cn[nH]c(=O)c1C(F)(F)F [Example 14] | 94.3 | 0.5
9 | CC(=O)c1c(N[C@@H](C)CCCn2ccc3cc(-c4ncc(C(F)(F)F)cn4)ccc3c2=O)cn[nH]c1=O [Example 15, 2-[(4S)-4-[(5-acetyl-6-oxo-1H-pyridazin-4-yl)amino]pentyl]-6-[5-(trifluoromethyl)pyrimidin-2-yl]isoquinolin-1-one] | 576 | 0.3
10 | CC(=O)c1c(N[C@@H](C)CCCn2ccc3cc(-c4ncc(C(F)(F)F)cn4)c(F)cc3c2=O)cn[nH]c1=O [Example 16, (S)-2-(4-((5-acetyl-6-oxo-1,6-dihydropyridazin-4-yl)amino)pentyl)-7-fluoro-6-(5-(trifluoromethyl)pyrimidin-2-yl)isoquinolin-1(2H)-one] | 25.2 | 0.2
11 | C[C@@H](CCCn1ccc2cc(-c3ccc(OC(F)F)cn3)cc(F)c2c1=O)Nc1cn[nH]c(=O)c1C(F)(F)F [Example 17, (S)-6-(5-(difluoromethoxy)pyridin-2-yl)-8-fluoro-2-(4-((6-oxo-5-(trifluoromethyl)-1,6-dihydropyridazin-4-yl)amino)pentyl)isoquinolin-1(2H)-one] | 117 | 0.4
12 | C[C@@H](CCCn1ccc2cc(-c3ccc(C#N)cn3)cc(F)c2c1=O)Nc1cn[nH]c(=O)c1C(F)(F)F [Example 18, (S)-6-(8-fluoro-1-oxo-2-(4-((6-oxo-5-(trifluoromethyl)-1,6-dihydropyridazin-4-yl)amino)pentyl)-1,2-dihydroisoquinolin-6-yl)nicotinonitrile] | 164 | 0.4
13 | C[C@@H](CCCn1ccc2cc(-c3ccc(F)cn3)cc(F)c2c1=O)Nc1cn[nH]c(=O)c1C(F)(F)F [Example 19, (S)-8-fluoro-6-(5-fluoropyridin-2-yl)-2-(4-((6-oxo-5-(trifluoromethyl)-1,6-dihydropyridazin-4-yl)amino)pentyl)isoquinolin-1(2H)-one] | 74.1 | 0.3
14 | C[C@@H](CCCn1ccc2cc(-c3ncc(C(F)(F)F)cn3)c(F)c(F)c2c1=O)Nc1cn[nH]c(=O)c1C(F)(F)F [Example 20] | 14.6 | 0.3
15 | C[C@@H](CCCn1ccc2cc(-c3cnc(C(F)(F)F)cn3)c(F)cc2c1=O)Nc1cn[nH]c(=O)c1C(F)(F)F [Example 21, 7-fluoro-2-[(4S)-4-[[6-oxo-5-(trifluoromethyl)-1H-pyridazin-4-yl]amino]pentyl]-6-[5-(trifluoromethyl)pyrazin-2-yl]isoquinolin-1-one] | 136 | 0.3

The remaining lines, values ahead:

Row | EC50 [1] [nM] | IC50 (PARP7) [nM] | SMILES
16 | 71.3 | 0.4 | COc1cnc(-c2cc3ccn(CCC[C@H](C)Nc4cn[nH]c(=O)c4C(F)(F)F)c(=O)c3cc2F)nc1 [Example 22, (S)-7-fluoro-6-(5-methoxypyrimidin-2-yl)-2-(4-((6-oxo-5-(trifluoromethyl)-1,6-dihydropyridazin-4-yl)amino)pentyl)isoquinolin-1(2H)-one]
17 | 2300 | 0.4 | C[C@@H](CCCn1ccc2cc(-c3cnc(C#N)cn3)c(F)cc2c1=O)Nc1cn[nH]c(=O)c1C(F)(F)F [Example 23, (S)-5-(7-fluoro-1-oxo-2-(4-((6-oxo-5-(trifluoromethyl)-1,6-dihydropyridazin-4-yl)amino)pentyl)-1,2-dihydroisoquinolin-6-yl)pyrazine-2-carbonitrile]
18 | 220 | 0.9 | C[C@@H](CCCn1ccc2cc(-c3ncc(C#N)cn3)c(F)cc2c1=O)Nc1cn[nH]c(=O)c1C(F)(F)F [Example 24, (S)-2-(7-fluoro-1-oxo-2-(4-((6-oxo-5-(trifluoromethyl)-1,6-dihydropyridazin-4-yl)amino)pentyl)-1,2-dihydroisoquinolin-6-yl)pyrimidine-5-carbonitrile]
19 | 136 | 0.6 | C[C@@H](CCCn1ccc2cc(-c3ccc(C#N)cn3)c(F)cc2c1=O)Nc1cn[nH]c(=O)c1C(F)(F)F [Example 25, (S)-6-(7-fluoro-1-oxo-2-(4-((6-oxo-5-(trifluoromethyl)-1,6-dihydropyridazin-4-yl)amino)pentyl)-1,2-dihydroisoquinolin-6-yl)nicotinonitrile]
20 | 10000 | 0.4 | C[C@@H](CCCn1ccc2cc(-c3cccc4c3OCC4)c(F)cc2c1=O)Nc1cn[nH]c(=O)c1C(F)(F)F [Example 26, (S)-6-(2,3-dihydrobenzofuran-7-yl)-7-fluoro-2-(4-((6-oxo-5-(trifluoromethyl)-1,6-dihydropyridazin-4-yl)amino)pentyl)isoquinolin-1(2H)-one]
21 | 10000 | 25 | C[C@@H](CCCn1ccc2cc(-c3cccc4c3OCCO4)c(F)cc2c1=O)Nc1cn[nH]c(=O)c1C(F)(F)F [Example 27, (S)-6-(2,3-dihydrobenzo[b][1,4]dioxin-5-yl)-7-fluoro-2-(4-((6-oxo-5-(trifluoromethyl)-1,6-dihydropyridazin-4-yl)amino)pentyl)isoquinolin-1(2H)-one]
22 | 2180 | > 33 | C[C@@H](CCCn1ccc2cc(-c3ccc4c(c3)OCCO4)c(F)cc2c1=O)Nc1cn[nH]c(=O)c1C(F)(F)F [Example 28, (S)-6-(2,3-dihydrobenzo[b][1,4]dioxin-6-yl)-7-fluoro-2-(4-((6-oxo-5-(trifluoromethyl)-1,6-dihydropyridazin-4-yl)amino)pentyl)isoquinolin-1(2H)-one]
23 | 31.6 | 1.6 | C[C@@H](CCCn1cnc2cc(-c3ncc(C(F)(F)F)cn3)c(F)cc2c1=O)Nc1cn[nH]c(=O)c1C(F)(F)F [Example 29, (S)-6-fluoro-3-(4-((6-oxo-5-(trifluoromethyl)-1,6-dihydropyridazin-4-yl)amino)pentyl)-7-(5-(trifluoromethyl)pyrimidin-2-yl)quinazolin-4(3H)-one]
24 | 18.6 | 0.3 | C[C@@H](CCCn1c(=O)[nH]c2cc(-c3ncc(C(F)(F)F)cn3)c(F)cc2c1=O)Nc1cn[nH]c(=O)c1C(F)(F)F [Example 30, 6-fluoro-3-[(4S)-4-[[6-oxo-5-(trifluoromethyl)-1H-pyridazin-4-yl]amino]pentyl]-7-[5-(trifluoromethyl)pyrimidin-2-yl]-1H-quinazoline-2,4-dione]
